Measurements from patent US20040157930A1, “Histone deacetylase enzyme-inhibiting derivatives of hydroxamic acid as new cytokine synthesis-inhibiting anti-inflammatory drugs” (priority 2001, published 2004).
pIC50: −log10 of the molar value.

How the values were obtained:
TNFα [1] = test: TNFα inhibition test (Moreira et al.); assay type: cell-based; conditions: for pIC50: read-out: TNF IC50; for TNF Potency: relative potency, compound 1 = 100.00
Text: A series of hydroxamic acid derivatives described in EP 901465 were subjected to the histone deacetylase (HDAC) and TNFα inhibition tests in accordance with the methods described by Lechner et al., Biochim Biophys. Acta 1996, 1296, 181-188 and Moreira A. L. et al., J. Exp. Med. 1993, […] respectively.

IFNγ [2] = test: LPS-stimulated PBMC cytokine production in vitro: IFNγ (ELISA); conditions: Homo sapiens, 24 h, read-out: IFNγ IC50
Method: (§2) Interferon γ (IFNγ) was measured with a commercially available ELISA assay.

IL-1β = test: LPS-stimulated PBMC cytokine production in vitro: IL-1β (ECL); assay type: cell-based; conditions: Homo sapiens, LPS 10 ng/ml, 24 h
Method: (§1) Samples of peripheral blood or buffy coats from healthy volunteers were used. […] At the end of the treatment the pro-inflammatory cytokines TNFα, IL-1β were measured by means of an electrochemiluminescence assay (ECL) using specific commercial antibodies.

TNFα [3] = test: LPS-stimulated PBMC cytokine production in vitro: TNFα (ECL); assay type: cell-based; conditions: Homo sapiens, LPS 10 ng/ml, 24 h
Method: as §1

IFNγ [4] = test: IFNγ synthesis by PBMCs stimulated with IL-12 and IL-18 (ELISA); assay type: cell-based; conditions: Homo sapiens; PBMC, IL-12 10 ng/ml + IL-18 20 ng/ml, 48 h; read-out: IFNγ (from IL-12 + IL-18) IC50
Method: Cytokine IFNγ is produced by the T lymphocytes following their stimulation by pro-inflammatory cytokines, especially IL-12 and IL-18 (Dinarello C. A. and Moldawer L. L. Proinflammatory and anti-inflammatory cytokines in rheumatoid arthritis. A primer for clinicians. 2nd Edition, Amgen Inc., 2000).
At the end, the cells were stimulated for 48 hours in the presence of the compound by simultaneous addition of recombinant IL-12 (10 ng/ml) and recombinant IL-18 (20 ng/ml). The quantity of IFNγ produced was determined with a commercial ELISA assay.

[5] = system: inflammatory cytokines induced by LPS; test: LPS-stimulated PBMC cytokine production, summary over all cytokines; conditions: Homo sapiens, read-out: IC50, synthesis of all the inflammatory cytokines induced by LPS
Method: as §2

| Structure (SMILES) | pIC50 (TNFα [1]) | TNF Potency (TNFα [1]) | further results |
| --- | --- | --- | --- |
| O=C(Nc1ccc(C(=O)NO)cc1)OCCCc1ccncc1 [Compound 13] | 6.57 | 2.59 |  |
| O=C(Nc1ccc(C(=O)NO)cc1)OCCC12CC3CC(CC(C3)C1)C2 [Compound 9] | 6.80 | 4.40 |  |
| O=C(CCCCc1ccccc1)Nc1ccc(C(=O)NO)cc1 [Compound 14] | 6.52 | 2.33 |  |
| CCN(CC)Cc1ccc2cc(CCC(=O)Nc3ccc(C(=O)NO)cc3)ccc2c1 [Compound 2] | 7.99 | 68.75 |  |
| CCN(CC)Cc1ccc2cc(CNC(=O)Nc3ccc(C(=O)NO)cc3)ccc2c1 [Compound 4] | 7.95 | 62.68 |  |
| CCCCN(CCCC)Cc1ccc2cc(COC(=O)Nc3ccc(C(=O)NO)cc3)ccc2c1 [Compound 8] | 7.17 | 10.32 |  |
| CCN(CC)Cc1ccc(COC(=O)Nc2ccc(C(=O)NO)cc2)c2ccccc12 [Compound 3] | 7.99 | 68.02 |  |
| CCCN(CCC)Cc1ccc2cc(COC(=O)Nc3ccc(C(=O)NO)cc3)ccc2c1 [Compound 5] | 7.90 | 55.28 |  |
| CC[N+]([O-])(CC)Cc1ccc2cc(COC(=O)Nc3ccc(C(=O)NO)cc3)ccc2c1 [Compound 15] | 6.00 | 0.70 |  |
| O=C(Nc1ccc(C(=O)NO)cc1)OCC1CCc2ccccc2C1 (centres unmarked) [Compound 7] | 7.18 | 10.68 |  |
| O=C(Nc1ccc(C(=O)NO)cc1)OCc1ccc2c(c1)OCO2 [Compound 6] | 7.30 | 14.00 |  |
| O=C(Nc1ccc(C(=O)NO)cc1)OCc1ccc2ccccc2c1 [Compound 11] | 6.80 | 4.40 |  |
| CC(/C=C/C(=O)NO)=C\[C@@H](C)C(=O)c1ccc(N(C)C)cc1 [TSA, trichostatin] |  |  | pIC50 (IFNγ [2]): 8.00; pIC50 (IL-1β): 7.00; pIC50 (TNFα [3]): 7.30; pIC50 (IFNγ [4]): 6.31; pIC50 [5]: 6.70 to 7.30 |
| O=C(Nc1ccc(C(=O)NO)cc1)OCCCc1ccccn1 [Compound 12] | 6.64 | 3.04 |  |
| CCN(CC)Cc1ccc2cc(COC(=O)Nc3ccc(C(=O)NO)cc3)ccc2c1 [Compound 1] | 8.15 | 100.00 |  |
| O=C(Nc1ccc(C(=O)NO)cc1)OCCCc1ccccc1 [Compound 10] | 6.80 | 4.40 |  |
